Assay [1] concerns the target T1, recombinant His-CHK1 (Homo sapiens, UniProt O14757).
T1 sequence (O14757 1-265 limits assumed): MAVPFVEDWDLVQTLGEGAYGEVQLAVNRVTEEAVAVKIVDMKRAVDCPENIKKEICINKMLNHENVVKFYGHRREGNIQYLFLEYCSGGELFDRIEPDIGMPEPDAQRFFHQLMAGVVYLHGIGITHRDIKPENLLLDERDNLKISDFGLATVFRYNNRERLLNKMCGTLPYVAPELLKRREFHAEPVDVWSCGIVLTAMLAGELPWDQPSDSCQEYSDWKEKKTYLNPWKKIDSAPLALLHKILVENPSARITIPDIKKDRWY
Nature of the assay: CHK1 In Vitro Kinase Assay.

Assay [2] has as its target T2, Cyclin E/CDK2 (Homo sapiens, UniProt P24941).
T2 construct: made in house; host or cells: SF9 cells, baculovirus co-infection
Nature of the assay: In Vitro Cyclin E/CDK2 Kinase Assay. The settings on record: rated A-F. The assay is classed as biochemical. The text has this:
Cyclin E was cloned into pVL1393 (Pharmingen, La Jolla, Calif.) by PCR, with the addition of 5 histidine residues at the amino-terminal end to allow purification on nickel resin. The expressed protein was approximately 45 kDa. CDK2 was cloned into pVL1393 by PCR, with the addition of a haemaglutinin epitope tag at the carboxy-terminal end (YDVPDYAS). The expressed protein was approximately 34 kDa in size.
Recombinant baculoviruses expressing cyclin E and CDK2 were co-infected into SF9 cells at an equal multiplicity of infection (MOI=5), for 48 hrs. Cells were harvested by centrifugation at 1000 RPM for 10 minutes, then pellets lysed on ice for 30 minutes in five times the pellet volume of lysis buffer containing 50 mM Tris pH 8.0, 150 mM NaCl, 1% NP40, 1 mM DTT and protease inhibitors (Roche Diagnostics GmbH, Mannheim, Germany). Lysates were spun down at 15000 RPM for 10 minutes and the supernatant retained. 5 mL of nickel beads (for one liter of SF9 cells) were washed three times in lysis buffer (Qiagen GmbH, Germany). Imidazole was added to the baculovirus supernatant to a final concentration of 20 mM, then incubated with the nickel beads for 45 minutes at 4° C. Proteins were eluted with lysis buffer containing 250 mM imidazole. Eluate was dialyzed about 15 hours in 2 liters of kinase buffer containing 50 mM Tris pH 8.0, 1 mM DTT, 10 mM MgCl2, 100 μM sodium orthovanadate and 20% glycerol. Enzyme was stored in aliquots at −70° C.
Cyclin E/CDK2 kinase assays can be performed as described below in low protein binding 96-well plates (Corning Inc, Corning, N.Y.).
The substrate used in these reactions is a biotinylated peptide derived from Histone H1 (from Amersham, UK). The substrate is thawed on ice and diluted to 2 μM in kinase buffer. Test compounds are diluted in 10% DMSO to desirable concentrations. For each kinase reaction, 20 μL of the 50 μg/mL enzyme solution (1 μg of enzyme) and 20 μl of the 2 μM substrate solution are mixed, then combined with 10 μL of diluted compound in each well for testing. The kinase reaction is initiated by addition of 50 μL of 2 μM ATP and 0.1 μCi of ^33P-ATP (from Amersham, UK). The reaction is allowed to run for 1 hour at room temperature, then is stopped by adding 200 μL of stop buffer containing 0.1% Triton X-100, 1 mM ATP, 5 mM EDTA, and 5 mg/mL streptavidine coated SPA beads (from Amersham, UK) for 15 minutes. The SPA beads are then captured onto a 96-well GFIB filter plate (Packard/Perkin Elmer Life Sciences) using a Filtermate universal harvester (Packard/Perkin Elmer Life Sciences.). Non-specific signals are eliminated by washing the beads twice with 2M NaCl then twice with 2 M NaCl with 1% phosphoric acid. The radioactive signal can then be measured using, for example, a TopCount 96 well liquid scintillation counter (from Packard/Perkin Elmer Life Sciences).

The target of assay [3] is mTOR enzyme (Homo sapiens, UniProt P42345). Nature of the assay: mTOR Kinase Assay. The assay is classed as biochemical. Particulars: rated A-F. The procedure: The mTOR assay buffer contains 10 mM hepes (pH 7.4), 50 mM NaCl, 100 μg/ml BSA, 50 mM B-glycerophosphate, 10 mM MnCl2 and 0.5 mM DTT. 20 ng of mTOR enzyme is preincubated with the compound for 10 minutes. 5 μM ATP and 0.1 μM GSTS6K is added. The reaction is incubated for one hour at 30° C. Anti phospho p70S6K (about 1.7 ng/well) and anti GSTXL665 (1:1 Ratio with the substrate GSTS6K) are added after incubating. The plates are read at least 2 hours after adding the anti phospho p70S6K and the anti GSTXL665.

Structures are written as SMILES.

The IC50 is the concentration at which inhibition is half-maximal. As for `Nc1c(Br)c(N2CCCS(=O)(=O)CC2)nc2c(-c3cnc4ccccc4c3)cnn12` [Compound 10.64], the IC50 was over 5 µM in assay [1], over 5 µM in assay [2] and under 100 nM in assay [3].
On to `CS(=O)(=O)NC(=O)C[C@H]1CC[C@H](c2nc3c(-c4cnc5ccccc5c4)cnn3c(N)c2Br)CC1` [Compound 7.5], for which the IC50 in assay [1] was over 5 µM; in assay [2] it was over 5 µM; in assay [3] it was under 100 nM.
Turning to `Nc1c(Br)c(CN2CCOCC2)nc2c(-c3cnc4ccccc4c3)cnn12` [Compound 13.2, 6-bromo-5-(morpholinomethyl)-3-(quinolin-3-yl)pyrazolo[1,5-a]pyrimidin-7-amine], the results for the IC50 in assay [1], in assay [2] and in assay [3] were over 5 µM, over 5 µM and under 100 nM, respectively.
Turning to `CS(=O)(=O)N1CCC(c2nc3c(-c4cnc5ccccc5c4)cnn3c(N)c2Br)CC1` [Compound 8.18], the IC50 in assay [1] was over 5 µM; in assay [2], 1 to 5 µM; in assay [3], under 100 nM.
On to `COC(=O)[C@@H]1CC[C@H](c2nc3c(-c4cnc5ccccc5c4)cnn3c(N)c2Br)CN1` (stereo in doubt) [Compound 2.6], for which the IC50 was 1 to 5 µM in assay [1], over 5 µM in assay [2] and under 100 nM in assay [3].
For the molecule `Nc1c(Br)c(N2CCC[S+]([O-])CC2)nc2c(-c3cnc4ccccc4c3)cnn12` (stereo not drawn) [Compound 10.63], the values for the IC50 in assay [1], in assay [2] and in assay [3] were over 5 µM, over 5 µM and under 100 nM, respectively.
In the case of `CS(=O)(=O)N1CCC(c2nc3c(-c4cnc5ccccc5c4)cnn3c(N)c2Br)C1` (stereo not drawn) [Compound 8.1], the IC50 was over 5 µM in assay [1], over 5 µM in assay [2] and under 100 nM in assay [3].
Turning to `CS(=O)(=O)N1CCC(c2cc(N)n3ncc(-c4cnc5ccccc5c4)c3n2)C1` (stereo not drawn) [Compound 8.17], the IC50 in assay [1] is over 5 µM; in assay [2], over 5 µM; in assay [3], under 100 nM.
Regarding `N#CCC1CCC(c2nc3c(-c4cnc5ccccc5c4)cnn3c(N)c2Br)CC1` (stereo not drawn) [Compound 5.2], the IC50 was over 5 µM in assay [1], over 5 µM in assay [2] and under 100 nM in assay [3].
Consider `Nc1c(Br)c(N2CCS(=O)(=O)CC2)nc2c(-c3cnc4ccccc4c3)cnn12` [Compound 10.31], for which the results for the IC50 in assay [1], in assay [2] and in assay [3] were over 5 µM, over 5 µM and under 100 nM, respectively.
Take `Nc1cc(CN2CCN3C(=O)NC(=O)C3C2)nc2c(-c3cnc4ccccc4c3)cnn12` (stereo not drawn) [Compound 13.3]: the IC50 in assay [1] is over 5 µM; in assay [2] it was over 5 µM; in assay [3], 201 to 500 nM.
Consider `CS(=O)(=O)NC(=O)C[C@H]1CC[C@@H](c2nc3c(-c4cnc5ccccc5c4)cnn3c(N)c2Br)CC1` [Compound 7.2, 2-(4-(7-amino-6-bromo-3-(quinolin-3-yl)pyrazolo[1,5-a]pyrimidin-5-yl)cyclohexyl)-N-(methylsulfonyl)acetamide], for which the IC50 is over 5 µM in assay [1], over 5 µM in assay [2] and under 100 nM in assay [3].

Source of the values: US8591943B2, “Pyrazolo[1,5-a]pyrimidine derivatives as mTOR inhibitors” (Merck Sharp & Dohme Corp., priority 2009, dated 2013).
